# Data reported in publication PMC6112376, “Comprehensive Analyses and Prioritization of Tox21 10K Chemicals Affecting Mitochondrial Function by in-Depth Mechanistic Studies” (Environmental Health Perspectives, 2018).
# Like-named read-outs stand apart in the source and are kept apart here.
# Legend:
# [1] = tested on: hNSC; test: MMP assay in human neural stem cells (hNSC); assay type: cell-based; conditions: Homo sapiens, Neural stem cell, 1 h, read-out: hNSC IC50 (MMP)
# [2] = tested on: HepG2 cells; test: ROS-Glo hydrogen peroxide (ROS) assay; assay type: cell-based, human; conditions: Homo sapiens, HepG2, 2 h, read-out: ROS (HepG2) EC50
# [3] = tested on: HepG2 cells; test: Intracellular ATP content (cell viability) assay; assay type: cell-based, human; conditions: Homo sapiens, HepG2, 40 h
# [4] = tested on: p53 (p53-bla HCT-116 cells); test: p53 β-lactamase reporter gene assay; assay type: cell-based, human; conditions: Homo sapiens; 16 h incubation; mean±SD of three experiments
# [5] = tested on: Nrf2/ARE (ARE-bla HepG2 cells); test: ARE β-lactamase reporter gene assay; assay type: cell-based, human; conditions: Homo sapiens, HepG2; 16 h incubation; mean±SD of three experiments; read-out: ARE (HepG2) EC50
# [6] = tested on: isolated rat liver mitochondria; test: Oxygen consumption, Clark-type oxygen electrode; assay type: biochemical
# [7] = tested on: HeLa cells expressing YFP-Parkin; test: Parkin translocation assay; assay type: cell-based, human
# [8] = tested on: rat primary hepatocytes
# [9] = tested on: HepG2 cells; conditions: cited from earlier work
# [10] = tested on: HepG2 cells; test: cells; conditions: Homo sapiens
# [11] = tested on: Caenorhabditis elegans strain PE255; test: In vivo C. elegans ATP status assay
# [12] = tested on: rat primary hepatocytes; test: MMP assay in rat primary hepatocytes; conditions: Rattus norvegicus, Hepatocyte, 1 h
# [13] = tested on: Caenorhabditis elegans (Bristol N2); test: C. elegans larval development and growth assay
smiles,measurement,setting,value
O=C(Nc1ccc(Cl)cc1)Nc1ccc(Cl)c(Cl)c1 [Triclocarban],IC50,[1],430 nM
same,EC50,[2],31800 nM
same,IC50,"[3]; read-out: ATP (HepG2, galactose) IC50",15800 nM
same,IC50,"[3]; read-out: ATP (HepG2, glucose) IC50",19100 nM
same,EC50,[4],5330 ± 2020 nM
same,EC50,[5],6680 nM
same,Potential Mechanism,[6],Uncoupler
same,effect on mitochondrial respiration (in words),[6],effects similar to those of FCCP
same,"I-ADP, % of control (O2 consumption rate)",[6]; 0.032 µM,107 (58.8) % of control
same,"I-sub, % of control (O2 consumption rate)",[6]; 0.032 µM,115 (15.1) % of control
same,"II-ADP, % of control (O2 consumption rate)",[6]; 0.032 µM,93 (82.1) % of control
same,"II-sub, % of control (O2 consumption rate)",[6]; 0.032 µM,93 (22.8) % of control
same,"I-ADP, % of control (O2 consumption rate)",[6]; 0.16 µM,96 (52.6) % of control
same,"I-sub, % of control (O2 consumption rate)",[6]; 0.16 µM,118 (15.5) % of control
same,"II-ADP, % of control (O2 consumption rate)",[6]; 0.16 µM,104 (91.7) % of control
same,"II-sub, % of control (O2 consumption rate)",[6]; 0.16 µM,114 (28.1) % of control
same,"I-ADP, % of control (O2 consumption rate)",[6]; 0.8 µM,103 (56.5) % of control
same,"I-sub, % of control (O2 consumption rate)",[6]; 0.8 µM,153 (20.1) % of control
same,"II-ADP, % of control (O2 consumption rate)",[6]; 0.8 µM,99 (87.1) % of control
same,"II-sub, % of control (O2 consumption rate)",[6]; 0.8 µM,128 (31.4) % of control
same,"I-ADP, % of control (O2 consumption rate)",[6]; 20 µM,143 (78.2) % of control
same,"I-sub, % of control (O2 consumption rate)",[6]; 20 µM,631 (82.6) % of control
same,"II-ADP, % of control (O2 consumption rate)",[6]; 20 µM,95 (84.1) % of control
same,"II-sub, % of control (O2 consumption rate)",[6]; 20 µM,290 (71.4) % of control
same,Parkin recruitment,[7],Active
same,MMP assays efficacy (%) Rat Hepatocytes,[8],-113±53%
same,Rat hepatocytes (efficacy) (MMP),[8],1.77±0.60 ( −73.7±3.11 ) %
same,MMP assays efficacy (%) qHTS-HepG2,[9],-119±8%
same,IC50,"[9]; read-out: MMP assays IC50 (µM), qHTS-HepG2",0.14 ± 0.05 µM
same,IC50,"[10]; HepG2, 1 h, read-out: HepG2 IC50 Galactose (MMP)",1360 nM
same,IC50,"[10]; HepG2, 1 h, read-out: HepG2 IC50 Glucose (MMP)",930 nM
same,IC50,"[10]; HepG2, read-out: IC50 in HepG2 cells (MMP, tier-one retest)",170 nM
same,Emax,"[10]; HepG2, read-out: MMP assays efficacy (%) HepG2",102%
same,LUM: mean difference in luminescence (ATP content) relative to plate controls,[11]; 0.05 µM,-0.00831
same,LUM: mean difference in luminescence (ATP content) relative to plate controls,[11]; 0.1 µM,0.1123
same,LUM: mean difference in luminescence (ATP content) relative to plate controls,[11]; 0.5 µM,0.4779
same,LUM: mean difference in luminescence (ATP content) relative to plate controls,[11]; 1 µM,2.3316
same,LUM: mean difference in luminescence (ATP content) relative to plate controls,[11]; 5 µM,2.049
same,LUM: mean difference in luminescence (ATP content) relative to plate controls,[11]; 10 µM,3.074
same,LUM: mean difference in luminescence (ATP content) relative to plate controls,[11]; 25 µM,3.397
same,LUM: mean difference in luminescence (ATP content) relative to plate controls,[11]; 50 µM,3.34
same,LUM: mean difference in luminescence (ATP content) relative to plate controls,[11]; 75 µM,3.2375
same,LUM: mean difference in luminescence (ATP content) relative to plate controls,[11]; 100 µM,2.494
same,effect on ATP content (in words),[11]; 0.5–100μM,inhibited
same,minimal effective concentration,"[11]; Caenorhabditis elegans, read-out: LEC LUM: lowest effect concentration for luminescence, a measure of nematode ATP content",0.5 µM
same,IC50,"[12]; read-out: IC50 in rat primary hepatocytes (MMP, tier-one retest)",170 nM
same,IC50,[12]; read-out: Rat hepatocytes IC50 (MMP),1770 nM
same,EXT: mean difference in nematode size relative to plate controls,[13]; 0.05 µM,0.05115
same,EXT: mean difference in nematode size relative to plate controls,[13]; 0.1 µM,-0.1287
same,EXT: mean difference in nematode size relative to plate controls,[13]; 0.5 µM,0.279
same,larval growth effect at 0.5μM,[13]; 0.5 µM,severe larval growth arrest
same,EXT: mean difference in nematode size relative to plate controls,[13]; 1 µM,1.127
same,EXT: mean difference in nematode size relative to plate controls,[13]; 5 µM,1.268
same,EXT: mean difference in nematode size relative to plate controls,[13]; 10 µM,1.264
same,EXT: mean difference in nematode size relative to plate controls,[13]; 25 µM,1.322
same,EXT: mean difference in nematode size relative to plate controls,[13]; 50 µM,1.038
same,EXT: mean difference in nematode size relative to plate controls,[13]; 75 µM,0.8579
same,EXT: mean difference in nematode size relative to plate controls,[13]; 100 µM,0.6913
same,effect on larval growth (in words),[13]; 0.5–100μM,inhibited
same,minimal effective concentration,"[13]; Caenorhabditis elegans, read-out: LEC EXT: lowest effect concentration for extinction, a measure of nematode size",0.5 µM
